The numbers were not newly measured in US20100278915A1, “COMPOSITIONS COMPRISING AN ANTIHISTAMINE, A[…] DE[…] EXTENDED RELEASE FORMULATIONS” (Atley Pharmaceuticals, Inc., priority 2009, published 2010), which cites them from elsewhere.

For data set [1] the following is noted: within 24 hours of dosing.
The conditions of data set [2]: after a single oral dose.
The conditions of data set [3]: in vivo.

Structures can show the parent of a compound that is named as a salt.

For `CN[C@@H](C)[C@@H](O)c1ccccc1` [Pseudoephedrine, pseudoephedrine], the “dose excreted unchanged in urine” value in data set [1] is “up to 90%”.
Regarding `COc1ccc2c3c1O[C@H]1C(=O)CC[C@H]4[C@@H](C2)N(C)CC[C@]314` [Hydrocodone, hydrocodone], the “share of total excretion in the first 24 hours” value in data set [2] is given as “About 70%”.
Consider `CN(C)CCC(c1ccc(Cl)cc1)c1ccccn1` (stereo not shown) [Chlorpheniramine, Chlorpheniramine maleate], for which, in data set [3], the “monodesmethyl and didesmethyl compounds excreted in the urine” value is reported as “up to 26%”; the “renal elimination, share of total excretion” value is “approximately 50%”.
